Experimental data: US20230404985A1, “METHODS OF TREATING TUMORS AND CANCERS HAVING DYSREGULATED WNT SIGNALING PATHWAYS” (ICAHN SCHOOL OF MEDICINE AT MOUNT SINAI, priority 2020, published 2023)

Legend:
[1] = test system: KIT and its downstream effector the prenyl-binding protein PDE6D; experiment: NanoBRET live cell target engagement, KIT and PDE6D; format: cell-based
[2] = test system: pT367 EZH2 and pT71 ATF2; conditions: MYC-CTNNB1 organoids; WNTinib 1 μM, sorafenib 10 μM, SB202190 10 μM; 48 hours time course
Description: Tumor organoids were grown in 24 well plates and were collected in Cell Recovery Solution (Corning) after drug treatment. Tumor organoids were left to rotate at 4° C. for one hour in order to dissolve the Matrigel. Tumor organoids were spun down at 300 g at 4° C. for 5 minutes. Pellets were lysed in 2× Laemmli buffer (+4% 2-mercaptoethanol) by heating at 95° C. for 10 minutes followed by 5 seconds of sonication. SDS-PAGE was run using standard procedures.

[3] = test system: MYC-Tp53 tumor organoid allografts; experiment: MYC-Tp53 tumor organoid allografts; format: in vivo, C57BL/6J mice; conditions: 30 mg/kg daily oral gavage
Description: 300,000 cells per allograft were prepared in 8 mg/mL Matrigel. 6-8-week-old C57BL/6J mice were shaved the day prior to injection. A 26^5/8-gauge needle was used to implant organoids into the flank in 100 μL Matrigel. Tumor allografts were measured daily with calipers, and upon an average volumetric measurement of 100 mm^3, animals were randomized and drug dosing was started. Drugs were dosed daily at 30 mg/kg via oral gavage. Tumor allografts were also measured daily.
MYC-CTNNB1 tumor organoids were engrafted into C57BL/6 mice and treatment was started when tumor volume reached 100 mm^3.

SMILES | activity in MYC-Tp53 allografts [3] | other results
CNC(=O)c1cc(Oc2ccc(NC(=O)Nc3ccc(C(F)(C(F)(F)F)C(F)(F)F)cc3)c(F)c2)ccn1 [8-50-2, 4-(3-fluoro-4-(3-(4-(perfluoropropan-2-yl)phenyl)ureido)phenoxy)-N-methylpicolinamide] |  | binding on KIT and PDE6D, comparison of WNTinib with 8-50-2 [1]: significant differences in binding
Oc1ccc(-c2nc(-c3ccncc3)c(-c3ccc(F)cc3)[nH]2)cc1 [SB202190] |  | temporal inhibition of pT367 EZH2 and pT71 ATF2 [2]: transient inhibition
COc1cc2nccc(Oc3ccc(NC(=O)NC4CC4)c(Cl)c3)c2cc1C(N)=O [lenvatinib] | better activity | 
CNC(=O)c1cc(Oc2ccc(NC(=O)Nc3ccc(Cl)c(C(F)(F)F)c3)c(F)c2)ccn1 [regorafenib] | better activity | 
